System: 855422-203-R-J1-PDC complex spheroids, viability
Assay: Anticancer human tumor 855422-203-R-J1-PDC patient-derived bladder carcinoma cell line growth inhibition [CLK]
Conditions: for IC50: curve of first compound; for viability, T/C: stronger effect = lower value
Description: A high-throughput screen of multi-cell type tumor spheroids was designed to identify active combinations of […] and targeted small molecules. Complex spheroids include a stromal component modeled by human endothelial cells (HUVEC) and fibroblasts modeled by human mesenchymal stem cells (MSCs). The concentration ranges selected for each drug and investigational agent were based upon clinically achievable concentrations if the clinical Cmax of the agent was known.
Compounds. The drugs and investigational agents: cirtuvivint (SM08502; NSC835563), CC-671 (NSC850746), vemurafenib (NSC761431), tapotoclax (NSC804041), sotorasib (NSC818433), adagrasib (NSC831453), MRTX-1133 (NSC836407), BAY2416964 (NSC825713), copanlisib (NSC816437), inavolisib (NSC800729), abemaciclib (NSC768073), osimertinib (NSC779217), entinostat (NSC756642), eltanexor (KPT-8602, NSC794443), venetoclax (NSC766270), ceralasertib (NSC777638), bortezomib (NSC756655), olaparib (NSC753686), talazoparib (NSC767125), alisertib (NSC759677), peposertib (NSC802822), gemcitabine (NSC613327), 5-fluorouracil (NSC19893), SN-38 (NSC673596), oxaliplatin (NSC266046), paclitaxel (NSC125973), and doxorubicin (NSC123127), were obtained from the National Cancer Institute (NCI) Developmental Therapeutics Program Chemical Repository. The FDA-approved anticancer drug set is available from the Developmental Therapeutics Program at https://dtp.cancer.gov/organization/dscb/obtaining/available plates.htm. […] The stock solutions were prepared in dimethyl sulfoxide (DMSO, Sigma-Aldrich, St. Louis, MO, cat. D2650), except for the platinum complexes which were prepared in saline (Quality Biological, Gaithersburg, MD, cat. 114-055-101), at 800-fold the tested concentration and stored at -70 degrees C prior to their use. All drugs and investigational agents were tested over a range starting from a high concentration at or near the clinical Cmax and decreasing in half-log increments. If the clinical Cmax for an agent had not been determined, the highest concentration tested was 10 microM.
Cell Culture. All cells were maintained in an incubator at 37 degrees C and 5% CO2 with 95% humidity. The PDC lines were cultured according to standard operating procedures established by the NCI PDMR. Briefly, all PDCs were thawed and cultured in Matrigel-coated flasks prepared with a working solution of 1X Ham's F-12 nutrient mix, without supplementation (Invitrogen, Waltham, MA, cat. 11765054), 100 U/mL penicillin-streptomycin (Invitrogen, cat. 15140122), and 2.5% Matrigel (Corning Inc., Corning, NY, cat. 354248) for the first three passages. The 947758-054-R-J2-PDC line was cultured in 6B/Colon 1A media, which includes advanced DMEM/F-12 (Thermo Fisher Scientific, cat. 12634028), 10 mM HEPES (Thermo Fisher Scientific, cat. 15630080), 1X GlutaMAX supplement (Thermo Fisher Scientific, cat. 35050061), 0.1 mg/mL primocin (InvivoGen, cat. ant-pm-2), 10% defined fetal bovine serum, heat inactivated (HyClone Laboratories Inc., cat. SH30070.03HI), 1.25 mM N-Acetyl-L-cysteine (Sigma-Aldrich, cat. A9165), 10 mM nicotinamide (Sigma-Aldrich, cat. N0636), 1X B-27 supplement (Thermo Fisher Scientific, cat. 17504044), 1X N-2 supplement (Thermo Fisher Scientific, cat. 17502048), and 10 microM Y-27632 dihydrochloride (Tocris Bioscience, cat. 1254). The 876862-298-R-J1-PDC was cultured in 6E media, which includes all 6B/Colon 1A media components plus 50% L-WRN conditioned media (ATCC, cat. CRL-3276), 50 ng/mL recombinant human EGF recombinant protein (hEGF; Thermo Fisher Scientific, cat. PHG0311), 10 ng/mL recombinant human fibroblast growth factor 10 (hGFG-10; PeproTech, cat. 100-26), 1 ng/mL recombinant human fibroblast growth factor 2 (hFGF-2; PeproTech, cat. 100-18B), and 1 µM prostaglandin E2 (PGE2; Tocris, cat. 2296). The 227483-062-R1-J1-PDC line was cultured in Panc media, containing all 6E components except hFGF-2, with the addition of 500 nM SB-431542 (Selleckchem, cat. S1067) and 10 nM gastrin (Tocris, cat. 3006). […]

[1] = second compound 0.0316 µM, first compound 0.0316 µM
[2] = second compound 0.0316 µM, first compound 0.1 µM
[3] = second compound 0.0316 µM, first compound 0.316 µM
[4] = second compound 0.0316 µM, first compound 1 µM
[5] = second compound 0.0316 µM, first compound 3.16 µM
[6] = second compound 0.0316 µM, first compound 10 µM
[7] = second compound 0.1 µM, first compound 0.0316 µM
[8] = second compound 0.1 µM, first compound 0.1 µM
[9] = second compound 0.1 µM, first compound 0.316 µM
[10] = second compound 0.1 µM, first compound 1 µM
[11] = second compound 0.1 µM, first compound 3.16 µM
[12] = second compound 0.1 µM, first compound 10 µM
[13] = second compound 0.316 µM, first compound 0.0316 µM
[14] = second compound 0.316 µM, first compound 0.1 µM
[15] = second compound 0.316 µM, first compound 0.316 µM
[16] = second compound 0.316 µM, first compound 1 µM
[17] = second compound 0.316 µM, first compound 3.16 µM
[18] = second compound 0.316 µM, first compound 10 µM
[19] = second compound 1 µM, first compound 0.0316 µM
[20] = second compound 1 µM, first compound 0.1 µM
[21] = second compound 1 µM, first compound 0.316 µM
[22] = second compound 1 µM, first compound 1 µM
[23] = second compound 1 µM, first compound 3.16 µM
[24] = second compound 1 µM, first compound 10 µM
[25] = second compound 3.16 µM, first compound 0.0316 µM
[26] = second compound 3.16 µM, first compound 0.1 µM
[27] = second compound 3.16 µM, first compound 0.316 µM
[28] = second compound 3.16 µM, first compound 1 µM
[29] = second compound 3.16 µM, first compound 3.16 µM
[30] = second compound 3.16 µM, first compound 10 µM
[31] = second compound 10 µM, first compound 0.0316 µM
[32] = second compound 10 µM, first compound 0.1 µM
[33] = second compound 10 µM, first compound 0.316 µM
[34] = second compound 10 µM, first compound 1 µM
[35] = second compound 10 µM, first compound 3.16 µM
[36] = second compound 10 µM, first compound 10 µM
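Further: spheroids exposed to drugs for seven days before readout.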
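Wherever viability, T/C is given: 100% = DMSO vehicle control wells.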

## C=CC(=O)N1CCN(c2nc(=O)n(-c3c(C)ccnc3C(C)C)c3nc(-c4c(O)cccc4F)c(F)cc23)C(C)C1 (centres undefined) + CN1CCN(c2cc(C(=O)Nc3cc4cc(-c5cnn(C)c5)ccc4cn3)ccn2)CC1
Second compound 0.0316 µM
  IC50: > 10000 nM
Second compound 0.1 µM
  IC50: > 10000 nM
Second compound 0.316 µM
  IC50: < 31.6 nM
Second compound 1 µM
  IC50: < 31.6 nM
Second compound 3.16 µM
  IC50: < 31.6 nM
Second compound 10 µM
  IC50: < 31.6 nM
[1]
  viability, T/C: 99%
[2]
  viability, T/C: 110%
[3]
  viability, T/C: 134%
[4]
  viability, T/C: 138%
[5]
  viability, T/C: 169%
[6]
  viability, T/C: 119%
[7]
  viability, T/C: 85.5%
[8]
  viability, T/C: 92.3%
[9]
  viability, T/C: 94.7%
[10]
  viability, T/C: 116%
[11]
  viability, T/C: 113%
[12]
  viability, T/C: 82.1%
[13]
  viability, T/C: 12.1%
[14]
  viability, T/C: 18.2%
[15]
  viability, T/C: 17.9%
[16]
  viability, T/C: 17.6%
[17]
  viability, T/C: 17.6%
[18]
  viability, T/C: 7.91%
[19]
  viability, T/C: 0.24%
[20]
  viability, T/C: 0.27%
[21]
  viability, T/C: 0.3%
[22]
  viability, T/C: 0.42%
[23]
  viability, T/C: 0.52%
[24]
  viability, T/C: 2.45%
[25]
  viability, T/C: 0.88%
[26]
  viability, T/C: 0.76%
[27]
  viability, T/C: 2.22%
[28]
  viability, T/C: 1.37%
[29]
  viability, T/C: 1.55%
[30]
  viability, T/C: 1.14%
[31]
  viability, T/C: 0.53%
[32]
  viability, T/C: 0.49%
[33]
  viability, T/C: 0.4%
[34]
  viability, T/C: 0.89%
[35]
  viability, T/C: 0.88%
[36]
  viability, T/C: 1.04%

## COC1C=CCC(C)C(C)S(=O)(=O)NC(=O)c2ccc3c(c2)N(CC2CCC21)CC1(CCCc2cc(Cl)ccc21)CO3 (centres undefined) + CN1CCN(c2cc(C(=O)Nc3cc4cc(-c5cnn(C)c5)ccc4cn3)ccn2)CC1
Second compound 0.0316 µM
  IC50: 5970 nM
Second compound 0.1 µM
  IC50: 4810 nM
Second compound 0.316 µM
  IC50: < 31.6 nM
Second compound 1 µM
  IC50: < 31.6 nM
Second compound 3.16 µM
  IC50: < 31.6 nM
Second compound 10 µM
  IC50: < 31.6 nM
[1]
  viability, T/C: 89.7%
[2]
  viability, T/C: 104%
[3]
  viability, T/C: 101%
[4]
  viability, T/C: 105%
[5]
  viability, T/C: 110%
[6]
  viability, T/C: 7.64%
[7]
  viability, T/C: 73.2%
[8]
  viability, T/C: 79.6%
[9]
  viability, T/C: 78.4%
[10]
  viability, T/C: 77.5%
[11]
  viability, T/C: 74.4%
[12]
  viability, T/C: 7.3%
[13]
  viability, T/C: 5.49%
[14]
  viability, T/C: 8.06%
[15]
  viability, T/C: 8.27%
[16]
  viability, T/C: 8.14%
[17]
  viability, T/C: 9.01%
[18]
  viability, T/C: 3.13%
[19]
  viability, T/C: 0.17%
[20]
  viability, T/C: 0.15%
[21]
  viability, T/C: 0.14%
[22]
  viability, T/C: 0.18%
[23]
  viability, T/C: 0.12%
[24]
  viability, T/C: 0.64%
[25]
  viability, T/C: 0.29%
[26]
  viability, T/C: 0.46%
[27]
  viability, T/C: 0.42%
[28]
  viability, T/C: 0.42%
[29]
  viability, T/C: 0.31%
[30]
  viability, T/C: 0.15%
[31]
  viability, T/C: 0.31%
[32]
  viability, T/C: 0.16%
[33]
  viability, T/C: 0.31%
[34]
  viability, T/C: 0.39%
[35]
  viability, T/C: 0.95%
[36]
  viability, T/C: 0.32%
